Here are results for 5 compounds from patent US9669003B2, “Use of flavone and flavanone derivatives in preparation of sedative and hypnotic drugs” (priority 2012, dated 2017).

Marks after values point to notes of the source that are not given here.

Holding throughout (assay type): in vivo
The subject of assay [1] is Kunming mice. As to the kind of experiment: Influence on autonomic activity of normal mice (ZIL-2 mice autonomic activity meter, counts within 10 min). The following applies: intragastric, x ± s, n = 10; for Times of activities in 1 h after drug administration/10 min: 1 h after administration; for Times of activities in 2 h after drug administration/10 min: 2 h after administration; for Times of activities in 24 h after drug administration/10 min: 24 h after administration. Put shortly:
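Kunming mice (10 per group, half each sex) were dosed at 25, 50 or 100 mg/kg in 0.5% CMC-Na. Spontaneous activity counts over 10 min were recorded at 1 h, 2 h and 24 h post-dose. Groups were compared by ANOVA with Dunnett's test after Levene's check.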

The subject of assay [2] is Kunming mice. As to the kind of experiment: Influence on hypnosis effect with pentobarbital sodium doses below the threshold (25 mg/kg i.p.). To be noted: pentobarbital sodium 25 mg/kg i.p. 60 min later, sleep observed in 30 min, n = 10. Put shortly: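 Kunming mice (10 per group, half female) given single oral doses of 25, 50 or 100 mg/kg in 0.5% CMC-Na; 60 min later pentobarbital sodium 25 mg/kg i.p. Sleep (righting reflex lost >1 min) scored within 30 min as percentage asleep, χ2 test.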

In assay [3] the test system is Kunming mice. As to the kind of experiment: Influence on hypnosis effect with pentobarbital sodium doses at the threshold (50 mg/kg i.p.). The following applies: pentobarbital sodium 50 mg/kg i.p. 60 min later, x ± s, n = 10. The procedure, abridged: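 Kunming mice (10/group, half each sex) received compound in 0.5% CMC-Na intragastrically at 25, 50 or 100 mg/kg; 60 min later given 0.3% sodium pentobarbital 50 mg/kg i.p. Sleep latency and duration recorded by loss of righting reflex over 1 min; ANOVA and χ2 for sleep incidence.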

Setting [4] is: test drug 25 mg/kg intragastric single dose.
The mark [5] stands for this setting: test drug 50 mg/kg intragastric single dose.
[6] abbreviates: test drug 100 mg/kg intragastric single dose.
The mark [7] stands for this setting: 25 mg/kg intragastric single dose.
The mark [8] stands for this setting: 50 mg/kg intragastric single dose.
Where [9] appears, read: 100 mg/kg intragastric single dose.

Regarding `COc1ccc(C2CC(=O)c3cc(OC)c(OC)c(OC)c3O2)cc1OC` (stereo not drawn) [Example 45, 6,7,8,3′,4′-penta methoxyl-flavanone], the “Times of activities in 1 h after drug administration/10 min” value (“Times of activities in 1 h” for short) in assay [1] (25 mg/kg) was 235.6 ± 44.5 /10 min; in assay [1] (50 mg/kg), 136.6 ± 40.5 /10 min; in assay [1] (100 mg/kg) it was 112.5 ± 35.4 /10 min. Besides, the results for the “Times of activities in 2 h after drug administration/10 min” value (“Times of activities in 2 h” for short) in assay [1] (25 mg/kg), in assay [1] (50 mg/kg) and in assay [1] (100 mg/kg) were 223.2 ± 41.4 /10 min, 123.3 ± 47.6 /10 min and 105.6 ± 48.5 /10 min, respectively. The “Times of activities in 24 h after drug administration/10 min” value (“Times of activities in 24 h” for short) in assay [1] (25 mg/kg) was 299.2 ± 61.3 /10 min; in assay [1] (50 mg/kg), 291.5 ± 60.4 /10 min; in assay [1] (100 mg/kg), 288.8 ± 69.5 /10 min. The “Number of sleeping animals” value turned out to be 5 in assay [2] (setting [4]), 6 in assay [2] (setting [5]) and 10 in assay [2] (setting [6]). Besides, the entries for the “rate of sleeping (%)” value in assay [2] (setting [4]), in assay [2] (setting [5]) and in assay [2] (setting [6]) were 50** %, 60** % and 100*** %, respectively. Also, the duration of sleep in assay [3] (setting [7]) came out at 59.67 ± 19.87 min; in assay [3] (setting [8]), 66.42 ± 28.90 min; in assay [3] (setting [9]), 90.03 ± 23.72 min. Moreover, the time to sleep in assay [3] (setting [7]) stood at 4.19 ± 1.78 min; in assay [3] (setting [8]), 3.26 ± 1.24 min; in assay [3] (setting [9]), 2.17 ± 1.14 min.

Consider `COc1cc(OC)c2c(c1)OC(c1cc(OC)c(OC)c(OC)c1)CC2=O` (stereo not drawn) [Example 46, 5,7,3′,4′,5′-penta methoxyl-flavanone], for which the results for the “Times of activities in 1 h” value in assay [1] (25 mg/kg), in assay [1] (50 mg/kg) and in assay [1] (100 mg/kg) were 300.8 ± 49.2 /10 min, 264.4 ± 41.3 /10 min and 176.8 ± 43.2 /10 min, respectively. The “Times of activities in 2 h” value is 299.2 ± 38.9 /10 min in assay [1] (25 mg/kg), 254.1 ± 53.2 /10 min in assay [1] (50 mg/kg) and 163.4 ± 36.5 /10 min in assay [1] (100 mg/kg). Moreover, the “Times of activities in 24 h” value in assay [1] (25 mg/kg) is 275.4 ± 81.3 /10 min; in assay [1] (50 mg/kg), 284.7 ± 78.7 /10 min; in assay [1] (100 mg/kg) it was 294.4 ± 67.5 /10 min. Also, the figures for the “Number of sleeping animals” value in assay [2] (setting [4]), in assay [2] (setting [5]) and in assay [2] (setting [6]) were 3, 6 and 7, respectively. Besides, the “rate of sleeping (%)” value in assay [2] (setting [4]) is given as 30%; in assay [2] (setting [5]), 60** %; in assay [2] (setting [6]), 70** %. Moreover, the duration of sleep in assay [3] (setting [7]) worked out at 27.80 ± 23.24 min; in assay [3] (setting [8]) it was 47.16 ± 23.51 min; in assay [3] (setting [9]), 55.58 ± 20.72 min. For the same compound, the figures for the time to sleep in assay [3] (setting [7]), in assay [3] (setting [8]) and in assay [3] (setting [9]) were 5.52 ± 2.31 min, 4.22 ± 1.23 min and 3.96 ± 2.45 min, respectively.

In the case of `COc1ccc(C2CC(=O)c3c(OC)c(OC)c(OC)c(OC)c3O2)cc1` (stereo not drawn) [Example 47, 5,6,7,8,4′-penta methoxyl-flavanone], the “Times of activities in 1 h” value is given as 328.6 ± 49.7 /10 min in assay [1] (25 mg/kg), 280.7 ± 61.3 /10 min in assay [1] (50 mg/kg) and 237.2 ± 35.6 /10 min in assay [1] (100 mg/kg). For the same compound, the entries for the “Times of activities in 2 h” value in assay [1] (25 mg/kg), in assay [1] (50 mg/kg) and in assay [1] (100 mg/kg) were 312.7 ± 56.1 /10 min, 278.6 ± 47.5 /10 min and 250.3 ± 46.2 /10 min, respectively. For the same compound, the “Times of activities in 24 h” value in assay [1] (25 mg/kg) is 315.1 ± 85.4 /10 min; in assay [1] (50 mg/kg), 310.5 ± 75.3 /10 min; in assay [1] (100 mg/kg) it was 307.1 ± 82.3 /10 min. Also, the “Number of sleeping animals” value is listed as 4 in assay [2] (setting [4]), 7 in assay [2] (setting [5]) and 8 in assay [2] (setting [6]). In addition, the “rate of sleeping (%)” value in assay [2] (setting [4]) is 40* %; in assay [2] (setting [5]) it was 70** %; in assay [2] (setting [6]) it was 80*** %. The duration of sleep in assay [3] (setting [7]) was determined as 39.86 ± 16.75 min; in assay [3] (setting [8]), 43.26 ± 20.65 min; in assay [3] (setting [9]) it was 59.78 ± 19.65 min. Besides, the time to sleep in assay [3] (setting [7]) amounted to 4.45 ± 1.43 min; in assay [3] (setting [8]), 3.72 ± 1.65 min; in assay [3] (setting [9]), 3.18 ± 1.54 min.

In the case of `COc1ccc(C2CC(=O)c3c(OC)c(OC)c(OC)c(OC)c3O2)cc1OC` (stereo not drawn) [Example 48, 5,6,7,8,3′,4′-hexamethoxyl-flavanone], the figures for the “Times of activities in 1 h” value in assay [1] (25 mg/kg), in assay [1] (50 mg/kg) and in assay [1] (100 mg/kg) were 225.6 ± 43.2 /10 min, 145.1 ± 41.6 /10 min and 120.3 ± 48.3 /10 min, respectively. The “Times of activities in 2 h” value was 229.4 ± 53.7 /10 min in assay [1] (25 mg/kg), 140.6 ± 40.8 /10 min in assay [1] (50 mg/kg) and 118.5 ± 42.6 /10 min in assay [1] (100 mg/kg). The “Times of activities in 24 h” value in assay [1] (25 mg/kg) is recorded as 308.5 ± 75.2 /10 min; in assay [1] (50 mg/kg), 317.4 ± 95.6 /10 min; in assay [1] (100 mg/kg) it was 302.1 ± 89.0 /10 min. Moreover, the results for the “Number of sleeping animals” value in assay [2] (setting [4]), in assay [2] (setting [5]) and in assay [2] (setting [6]) were 5, 6 and 8, respectively. The “rate of sleeping (%)” value is 50** % in assay [2] (setting [4]), 60** % in assay [2] (setting [5]) and 80*** % in assay [2] (setting [6]). The duration of sleep is 50.55 ± 20.76 min in assay [3] (setting [7]), 67.54 ± 21.07 min in assay [3] (setting [8]) and 87.51 ± 24.93 min in assay [3] (setting [9]). In addition, the time to sleep is on record as 3.40 ± 1.25 min in assay [3] (setting [7]), 3.19 ± 1.21 min in assay [3] (setting [8]) and 2.05 ± 1.80 min in assay [3] (setting [9]).

Turning to `COc1cc(OC)cc(C2CC(=O)c3c(OC)cc(OC)cc3O2)c1` (stereo not drawn) [Example 49], the “Times of activities in 1 h” value in assay [1] (25 mg/kg) is recorded as 305.2 ± 78.7 /10 min; in assay [1] (50 mg/kg), 267.9 ± 21.5 /10 min; in assay [1] (100 mg/kg) it was 179.9 ± 35.9 /10 min. The “Times of activities in 2 h” value in assay [1] (25 mg/kg) is 299.8 ± 94.1 /10 min; in assay [1] (50 mg/kg) it was 246.6 ± 13.9 /10 min; in assay [1] (100 mg/kg) it was 170.5 ± 34.1 /10 min. Besides, the figures for the “Times of activities in 24 h” value in assay [1] (25 mg/kg), in assay [1] (50 mg/kg) and in assay [1] (100 mg/kg) were 281.4 ± 94.3 /10 min, 274.2 ± 34.8 /10 min and 286.1 ± 12.7 /10 min, respectively. In addition, the “Number of sleeping animals” value in assay [2] (setting [4]) was 4; in assay [2] (setting [5]), 6; in assay [2] (setting [6]), 7. Also, the “rate of sleeping (%)” value was 40* % in assay [2] (setting [4]), 60** % in assay [2] (setting [5]) and 70** % in assay [2] (setting [6]). In addition, the duration of sleep is listed as 37.90 ± 13.18 min in assay [3] (setting [7]), 40.75 ± 23.05 min in assay [3] (setting [8]) and 57.65 ± 17.87 min in assay [3] (setting [9]). Further, the time to sleep in assay [3] (setting [7]) is 4.59 ± 1.55 min; in assay [3] (setting [8]), 3.69 ± 1.32 min; in assay [3] (setting [9]), 3.38 ± 1.29 min.
